# From patent US11591301B2, “Indoleamine-2,3-dioxygenase inhibitor, preparation method therefor and use thereof” (HINOVA PHARMACEUTICALS INC., priority 2018, dated 2023)
# Tests used:
# [1] = target: IDO1 protease activity in Hela cells (Homo sapiens (Human), UniProt P14902); assay: Inhibition of IDO protease in HeLa cells (IDO/kynurenine experiment, IFN-γ induced); type: cell-based; settings: 10 ng/mL IFN-γ, 48 h, OD480 nm, read-out: IC50, inhibitory activity against IDO1 protease activity in Hela cells
# Method: 2) Experimental Method for Compound Assay 2.1 Seeding HeLa Cells into 96 Well Plate
# The medium was taken out from the flask and the cells were washed with PBS. TrypLE solution was added to the flask to make the cells separate. The cells were further washed once with fresh medium containing 10% FBS, and then re-suspended in the medium until the final concentration was 2.3×10^6/mL. Only cells with activity greater than 90% can be used for detection. HeLa cells were planted into 100 μL suitable growth median 96 well plate at 3000 cells/well. The cells were incubated at 37° C. under 5% CO2 overnight.
# The compound was diluted to the concentration of 10 mM with DMSO, that was then continuously diluted 3 times to get 9 concentrations. 5 μL compound was added into 45 μL media as the median dilution (10 times dilution, containing 10% DMSO). 96 μL fresh growth media were added to each well to reach the total volume of 196 μL. 2 μL compound solution was taken from the mid-diluted solution and added to the cells in the wells of the assay plate, and then incubated in a 5% CO2 incubator at 37° C. for 30 minutes. 2 μL human IFN-γ solution was added to reach a total volume of 200 μL, with the final concentration of 10 ng/mL, and the final concentration is 0.1%. The cells were incubated in 5% CO2 incubator at 37° C. for 48 h.
# After incubating for another 48 hours in a 5% CO2 incubator at 37° C., 140 μL supernatant was added to each well and transferred to a new 96-well plate. 10 μL of 6.1N CCl3COOH was further added to each well, and incubated at 50° C. for 30 min after sealing. The plate was then centrifuged at 2500 rpm for 10 minutes. 100 μL supernatant in each well was transferred to another 96-well assay plate and mixed with 100 μL of 6% (w/v) p-dimethylaminobenzaldehyde. EnSpire was used to read the plate at OD480 nm.
# The average data of HC (high control: 10 ng/mL IFN-γ) and LC (low control: no IFN-γ) were calculated for each screening plate. Percent inhibition of compound well (% inh)=100*(aveHC−cpd well)/(aveHC−ave LC). Finally, GraphPad Prism 6 software was used to calculate the IC50 values of compounds and draw the effect-concentration curve.
# [2] = target: human IDO1 protease (Homo sapiens (Human), UniProt P14902); assay: Inhibitory activity against human IDO1 protease (absorbance test method); type: biochemical; settings: IDO1 (His-tag) enzyme, absorbance at 320 nm
# Method: IDO1 (His-tag) enzyme(BPS Bioscience), L-tryptophan (Sigma), methylene blue (Sigma), Catalase originated from the liver of cattle (Sigma), L-ascorbic acid (Sigma), glycerol (Sigma), potassium dihydrogen phosphate solution (Sigma), Tween 20 (Sigma), automatic sampling platformLiquid handler (Bravo & Echo), microplate ReaderSpectraMax M5e (Molecular Devices).
# 2) Test Method of Compounds: The Compounds are Determined by Absorbance Test Method:
# The tested compounds are dissolved in DMSO to prepare a high concentration of storage solution. The stock solution of reference compound was diluted with DMSO to prepare a 100× solution. In the first column of the working plate, 8 μL above tested compounds and 8 μL 100× reference compound were respectively added as the highest concentration, and then the highest concentrations were subjected to three times dilution to obtain 11 concentrations and prepare 100× solution. 0.5 μL solution was transferred from the above plate to the detection plate. To each well was added 0.5 μL 100× compound solution. For HPE and ZPE control wells, 0.5 μL 100% DMSO was added. 25 μL 2×IDO1 (His-tag) enzyme solution (containing L-ascorbic acid, methylene blue, and catalase) was added to each well. 25 μL reaction solution without IDO1 (His-tag) enzyme was added into HPE control well. The test plate was centrifugated at 1000 rpm for 1 minute to mix well. Then, the test plate was incubated at room temperature for 30 minutes. 25 μL above 2× substrate (L-tryptophan) solution was added to each well. The test plate was centrifugated at 1000 rpm for 1 minute to mix well. The detection plate was placed on ELISA (SpectraMax M5e), the temperature was set at 25° C., and the absorbance (OD value) was measured at 320 nm every 10 minutes till 60 minutes.
# Calculating the increase ratio of absorbance: the slope of the absorbance increase curve from 10 min to 60 min is derived from SpectralMax M5e. The inhibition coefficient of compound was calculated: the inhibition ratio of compound=(the absorbance increase ratio of ZPE control well−the absorbance increase ratio of compound well)/(the absorbance increase ratio of ZPE control well−the absorbance increase ratio of HPE control well)×100. Results was analyzed by Prism 5.0.
# Chain of IDO1 protease activity in Hela cells (P14902 whole entry): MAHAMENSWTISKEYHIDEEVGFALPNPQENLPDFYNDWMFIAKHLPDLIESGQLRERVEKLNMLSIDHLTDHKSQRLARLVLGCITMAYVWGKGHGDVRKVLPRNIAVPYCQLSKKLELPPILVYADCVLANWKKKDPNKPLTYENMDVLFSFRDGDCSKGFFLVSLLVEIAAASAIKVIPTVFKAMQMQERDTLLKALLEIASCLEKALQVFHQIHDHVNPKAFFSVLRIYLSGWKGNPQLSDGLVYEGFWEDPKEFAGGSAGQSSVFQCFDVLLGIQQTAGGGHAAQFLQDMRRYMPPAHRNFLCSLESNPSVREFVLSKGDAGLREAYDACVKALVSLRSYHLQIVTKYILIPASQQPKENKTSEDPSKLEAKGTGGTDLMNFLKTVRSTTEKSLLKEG
# Chain of human IDO1 protease (P14902 whole entry): as above
Molecule,IC50 [1] [nM],IC50 [2] [nM],IC50 ([2]; listed as 11) [nM]
"CC(C)NS(=O)(=O)CCNc1nonc1C(=NO)Nc1ccc(F)c(Br)c1 [Example 4, N-(3-bromo-4-fluorophenyl)-N′-hydroxyl-4-((2-(isopropylsulfamoyl)ethyl)amino)-1,2,5-oxadiazol-3-formamidine]",–,185,–
O=S(=O)(CCNc1nonc1/C(=N/O)Nc1ccc(F)c(Br)c1)NCC(F)F [Example 6],–,87,44
"CN(C)S(=O)(=O)CCNc1nonc1/C(=N/O)Nc1ccc(F)c(Br)c1 [Example 7, N-(3-bromo-4-fluorophenyl)-N′-hydroxyl-4-((2-N,N-dimethylsulfamoylethyl)amino)-1,2,5-oxadiazol-3-formamidine]",–,115,–
"CONS(=O)(=O)CCCNc1nonc1C(=NO)Nc1ccc(F)c(Br)c1 [Example 20, N-(3-bromo-4-fluorophenyl)-N′-hydroxyl-4-((3-(N-methoxylsulfamoyl)propyl)amino)-1,2,5-oxadiazol-3-formamidine]",–,99,–
"O=S(=O)(CCCNc1nonc1C(=NO)Nc1ccc(F)c(Br)c1)NO [Example 21, N-(3-bromo-4-fluorophenyl)-N′-hydroxyl-4-((3-(N-hydroxylsulfamoyl)propyl)amino)-1,2,5-oxadiazol-3-formamidine]",–,99,–
"O=S(=O)(CCCCNc1nonc1/C(=N/O)Nc1ccc(F)c(Br)c1)N1CCC1 [Example 25, 4-((4-(azetidin-1-ylsulfonyl)butyl)amino)-N-(3-bromo-4-fluorophenyl)-N′-hydroxyl-1,2,5-diazol-3-formamidine]",93,–,–
"O=S(=O)(CCCCNc1nonc1/C(=N/O)Nc1ccc(F)c(Br)c1)N1CC(F)C1 [Example 26, N-(3-bromo-4-fluorophenyl)-4-((4-((3-fluorazetidin-1-yl)sulfonyl)butyl)amino)-N′-hydroxyl-1,2,5-oxadiazol-3-amide]",113,–,–
"NS(=O)(=O)CCOCCNc1nonc1/C(=N/O)Nc1ccc(F)c(Br)c1 [Example 31, N-(3-bromo-4-fluorophenyl)-N′-hydroxyl-4-(2-(2-aminosulfonylethoxyl)-ethylamine)-1,2,5-diazol-3-formamidine]",68,–,–
"[2H]C([2H])([2H])NS(=O)(=O)CCCSc1nonc1/C(=N/O)Nc1cccc(Br)c1F [Example 33, N-(3-bromo-2-fluorophenyl)-N′-hydroxyl-4-((3-(N-trideuteratedmethylsulfamoyl)propyl)sulfur)-1,2,5-oxadiazol-3-formamidine]",69,–,–
"N-(3-bromo-4-fluorophenyl)-N′-hydroxyl-4-((2-(morpholinylsulfamoyl)ethyl)amino)-1,2,5-oxadiazol-3-formamidine [Example 9]",–,162,–

# Further lines, with some results ahead:
IC50 [1] [nM],IC50 [2] [nM],Molecule,IC50 ([2]; listed as 11) [nM]
19,54,"CNS(=O)(=O)CCNc1nonc1C(=NO)Nc1ccc(F)c(Br)c1 [Example 2, N-(3-bromo-4-fluorophenyl)-N′-hydroxyl-4-((2-(N-methylsulfamoyl)ethyl)amino)-1,2,5-oxadiazol-3-formamidine]",–
35,74,"CCNS(=O)(=O)CCNc1nonc1C(=NO)Nc1ccc(F)c(Br)c1 [Example 3, N-(3-bromo-4-fluorophenyl)-N′-hydroxyl-4-((2-(N-ethylsulfamoyl)ethyl)amino)-1,2,5-oxadiazol-3-formamidine]",–
15,49,"O=S(=O)(CCNc1nonc1C(=NO)Nc1ccc(F)c(Br)c1)NCCO [Example 5, N-(3-bromo-4-fluorophenyl)-N′-hydroxyl-4-((2-(N-(2-hydroxylethyl)sulfamoyl)ethyl)amino)-1,2,5-oxadiazol-3-formamidine]",–
30,63,"CC(C)NS(=O)(=O)CCCNc1nonc1/C(=N/O)Nc1ccc(F)c(Br)c1 [Example 13, N-(3-bromo-4-fluorophenyl)-N′-hydroxyl-4-((3-(N-isopropylsulfamoyl)propyl)amino)-1,2,5-oxadiazol-3-formamidine]",–
37,99,"O=S(=O)(CCCNc1nonc1C(=NO)Nc1ccc(F)c(Br)c1)NC1CC1 [Example 14, N-(3-bromo-4-fluorophenyl)-N′-hydroxyl-4-((3-(N-cyclopropylsulfamoyl)propyl)amino)-1,2,5-oxadiazol-3-formamidine]",–
32,51,"O=S(=O)(CCCNc1nonc1C(=NO)Nc1ccc(F)c(Br)c1)NCCO [Example 16, N-(3-bromo-4-fluorophenyl)-N′-hydroxyl-4-((3-(N-(2-hydroxylethyl)sulfamoyl)propyl)amino)-1,2,5-oxadiazol-3-formamidine]",–
10,–,"CCNS(=O)(=O)CCCNc1nonc1C(=NO)Nc1ccc(F)c(Br)c1 [Example 17, N-(3-bromo-4-fluorophenyl)-N′-hydroxyl-4-((3-(N-ethylsulfamoyl)propyl)amino)-1,2,5-oxadiazol-3-formamidine]",–
16,106,[2H]C([2H])([2H])N(C([2H])([2H])[2H])S(=O)(=O)CCCNc1nonc1/C(=N/O)Nc1ccc(F)c(Br)c1 [Example 28],–
20,–,"[2H]C([2H])([2H])NS(=O)(=O)CCCCNc1nonc1/C(=N/O)Nc1ccc(F)c(Br)c1 [Example 29, N-(3-bromo-4-fluorophenyl)-N′-hydroxyl-4-((4-(N-deuteratedmethylsulfamoyl)butyl)amino)-1,2,5-oxadiazol-3-formamidine]",–
24,–,[2H]C([2H])([2H])N(C([2H])([2H])[2H])S(=O)(=O)CCCCNc1nonc1/C(=N/O)Nc1ccc(F)c(Br)c1 [Example 30],–
17,–,[2H]C([2H])([2H])NS(=O)(=O)CCCSc1nonc1/C(=N/O)Nc1ccc(F)c(Br)c1 [Example 32],–
